Measurements taken from US20160243164A1, “ANTIMICROBIAL SILVER HYDROGEL COMPOSITION FOR THE TREATMENT OF BURNS AND WOUNDS” (CELACARE TECHNOLOGIES, LLC, priority 2011, published 2016).
In brackets after ≈: the same amount, converted by molar mass. Blank lines part the entries; values can stand above or below the molecule they belong to.

Columns and labels:
[1] = topical exposure for 4 hours; cited from earlier work
[2] = system: Candida albicans ATCC 10231; experiment: microtube dilution MIC; format: cell-based; conditions: ATCC10231, Example 9, 48 hrs incubation
Description: (§1) In brief, a standard inoculum (100 μL of a 1:200 dilution of a 0.5 MacFarland turbidity standard) of each microorganism was prepared in standard growth media and added to equal volumes of two-fold serial dilutions of SC and SC-Gel. MICs were determined visually as the highest dilution of SC, or SC-Gel, that inhibited growth after incubating the mixtures overnight at 35° C., except for Candida albicans, which required 48 hrs incubation. […] The MIC dilution was converted to μg/mL by multiplying the neat drug (Ag^+) concentration by the dilution appropriate dilution factor.
In brief, a standard inoculum (100 μL of a 1:200 dilution of a 0.5 MacFarland turbidity standard) of each microorganism was prepared in standard growth media and added to equal volumes of two-fold serial dilutions of SC and SC-Gel. MICs were determined visually as the highest dilution of SC, or SC-Gel, that inhibited growth after incubating the mixtures overnight at 35° C., except for C. albicans, which required 48 hrs incubation. […] The MIC dilution was converted to μg/mL by multiplying the neat drug (Ag^+) concentration by the dilution appropriate dilution factor.

[3] = system: Escherichia coli ATCC 25922; experiment: microtube dilution MIC; format: cell-based; conditions: Example 13; E. coli ATCC 25922
Description: as §1
The method described in Example 8 for minimum inhibitory concentration (MIC) was utilized for evaluation of activity of the compositions against Staphylococcus aureus and Streptococcus pyogenes (Gram-positive cocci) and Pseudomonas aeruginosa and Escherichia coli (Gram-negative rod) organisms.

[4] = system: Pseudomonas aeruginosa ATCC 27853; experiment: microtube dilution MIC; format: cell-based; conditions: Example 13; P. aeruginosa ATCC 27853
Description: as §1
In brief, a standard inoculum (100 μL of a 1:200 dilution of a 0.5 MacFarland turbidity standard) of each microorganism was prepared in standard growth media and added to equal volumes of two-fold serial dilutions of SC and SC-Gel. MICs were determined visually as the highest dilution of SC, or SC-Gel, that inhibited growth after incubating the mixtures overnight at 35° C., except for C. albicans, which required 48 hrs incubation. […] The MIC dilution was converted to μg/mL by multiplying the neat drug (Ag^+) concentration by the dilution appropriate dilution factor. […]

SMILES: O=C(O)CN(CCN(CC(=O)O)CC(=O)O)CC(=O)O.[Na].[Na] [Disodium EDTA, disodium ethylenediaminetetraacetic acid]
- reactivity in human patch test [1]: no reactivity

- MIC [2]: 0.49 µg/mL (≈ 1.18 µM)
SMILES: Clc1ccc(COC(Cn2ccnc2)c2ccc(Cl)cc2Cl)c(Cl)c1 (stereo not shown) [MZL, Miconazole]

SMILES: O=C([O-])CC(O)(CC(=O)[O-])C(=O)[O-].[Ag+].[Ag+].[Ag+] [SC Liquid, silver citrate]
- Minimal Inhibitory Concentration (MIC) [3]: 7.5 µg/mL
- Minimal Inhibitory Concentration (MIC) [4]: 11.25 µg/mL
